Like-named read-outs stand apart in the source and are kept apart here.

For data set [1], the system named is platelet rich rabbit plasma. Kind of data set: In vitro platelet antiaggregation activity, arachidonic acid induced, platelet rich plasma. It is filed as cell-based. Conditions: Oryctolagus cuniculus; for activity at 10 µg/mL: 10 mcg/ml, arachidonic acid 50 mcg/ml. How it is done: (§1) The platelet antiaggregation activity was determined in vitro using platelet rich rabbit plasma and arachidonic acid (50 mcg/ml) as aggregation inducing agent. The results are given for tracheal relaxation as percentage inhibition of the tracheal tone relative to the maximum relaxation induced by noradrenaline (0.3 mcg/ml) and for the platelet aggregation as a percentage of the maximum effect observed with the proaggregation agent.

For a further data set, the system named is human platelets. Kind of data set: In vitro inhibition of human platelet aggregation, Born's method. It is filed as cell-based. As to the method:
The platelet antiaggregation activity of the active products in the initial screening (Table 4) has been confirmed and extended by evaluating the capacity thereof to inhibit in vitro the aggregation of human platelets using Born's method. ADP (1 mcM), collagen (2 mcg/ml), arachidonic acid (1 mM), U-46619 (1,4 mcM) and IBOP (225 nM) were used as aggregation inducing agents. The results obtained (Table 5) show the capacity of the products tested to inhibit dose dependently the platelet aggregation induced by collagen, arachidonic acid, U-46619 and IBOP, probably through interaction with the platelet endoperoxide/thromboxane receptor. Therefore, said compounds might be potentially useful in the treatment of disorders in which the thromboxanes play a part, such as myocardial infarct, cerebrovascular diseases and asthmatic and/or inflammatory states.

The subject of data set [2] is isolated guinea pig trachea. Kind of data set: In vitro trachea relaxing activity (spontaneous tone in isolated trachea, method of Luduena). Conditions: Cavia porcellus, 30 mcg/ml, relative to maximum relaxation by noradrenaline 0.3 mcg/ml. The format is cell-based. As to the method: as §1
Data set [3] concerns histamine induced bronchospasm in anaesthetized guinea pig. Kind of data set: In vivo bronchodilatory effect, histamine induced bronchospasm (Konzett and Rossler). As to conditions: area under the curve relative to theophylline. As to the method:
Konzett and Rosslet's technique was used for evaluation, with the capacity of the tested products, when administered intraduodenally at dose levels of 25 and 100 mg/kg, to antagonize a histamine induced bronchospasm (7.5 mcg/ml) in anaesthetized guinea pig being determined. Theophylline (25 mg/kg, i.d.) was used as reference drug, with the areas under the curve defined by the bronchospasm inhibition percentages and the post-administration time being compared.

A further data set deals with rats. Kind of data set: Diuretic and saluretic activity (urine volume and electrolyte excretion over 6 h), technique of Lipschits et al. The format is in vivo. As to conditions: rat, 20 mg/kg po, (N) = not statistically significant vs control. How it is done:
The synthesized compounds were, therefore, subjected a pharmacological screening to evaluate a possible diuretic and salt excreting activity. Thus, an acute dose of each of the products of synthesis (20 or 25 mg/kg) was administered to rats and the amount of urine and the excretion of electrolytes was measured, following the technique described by Lipschits et al., with certain modifications (J. Pharmacol. Exp.Ther. 1943-79; 97-110).
The volume (ml/kg/6 h), the pH and the excretion of sodium, potassium and chloride ions (mEq/kg/6 h) were determined on the urine quantitatively collected over 6 hours, using triamterene and hydrochlorothiazide as reference diuretics.

Data set [4] in a line: Mortality rate in the mouse after a single oral dose of 1600 mg/kg. As to conditions: in vivo, single oral dose 1600 mg/kg. As to the method:
Likewise, to complete the superficial pharmacological profile, a check was made of the mortality rate in the mouse after oral administration of a single dose of 1600 mg/kg of each of the synthesized compounds (See Table 1).

[5] abbreviates: IBOP 225 nM, read-out: Concentration inhibiting > 60% platelet aggregation, IBOP.
[6] abbreviates: U-46619 1,4 mcM, read-out: Concentration inhibiting > 60% platelet aggregation, U-46619.
The mark [7] stands for this setting: arachidonic acid 1 mM, read-out: Concentration inhibiting > 60% platelet aggregation, arachidonic acid.
[8] abbreviates: collagen 2 mcg/ml, read-out: Concentration inhibiting > 60% platelet aggregation, collagen.
Setting [9] is: read-out: Cl excretion, treated group/control group ratio.
[10] abbreviates: read-out: K excretion, treated group/control group ratio.
The mark [11] stands for this setting: read-out: Na excretion, treated group/control group ratio.
Setting [12] is: read-out: Volume urine, treated group/control group ratio.

Take `CCN1c2nc(-c3ccccc3)c(-c3ccccc3)nc2C(N)=NS1(=O)=O` [1-ethyl-6,7-diphenyl, 4-amino-1-ethyl-6,7-diphenylpyrazino[2,3-c]-1,2,6-thiadiazine 2,2-dioxide]: the activity at 10 µg/mL in data set [1] is 100%. Besides, the IC60 was determined as 3000 nM in the data set on human platelets (setting [5]), 1000 nM with human platelets (setting [6]), 30000 nM with human platelets (setting [7]) and 1000 nM in the data set with human platelets (setting [8]).

Regarding `CCN1c2ncc(C)nc2C(N)=NS1(=O)=O` [1-ethyl-6-methyl, 4-amino-1-ethyl-6-methylpyrazino[2,3-c]-1,2,6-thiadiazine 2,2-dioxide], the activity at 30 µg/mL in data set [2] worked out at 67%. In addition, the “Bronchodilatory activity (area ratio)” value in data set [3] (25 mg/kg i.d.) was found to be 0.8; in data set [3] (100 mg/kg i.d.), 1.3.

For `CCN1c2ncc(-c3ccccc3)nc2C(N)=NS1(=O)=O` [1-ethyl-6-phenyl, 4-amino-1-ethyl-6-phenyl-pyrazino[2,3-c]-1,2,6-thiadiazine 2,2-dioxide], the activity at 10 µg/mL in data set [1] stood at 100%. In addition, the IC60 with human platelets (setting [5]) was determined as 1000 nM; in the data set on human platelets (setting [6]), 10000 nM; with human platelets (setting [7]), 30000 nM; in the data set with human platelets (setting [8]), 1000 nM.

With `CCN1c2nc(C)c(-c3ccccc3)nc2C(N)=NS1(=O)=O` [1-ethyl-6-phenyl-7-methyl, 4-amino-1-ethyl-6-phenyl-7-methylpyrazino[2,3-c]-1,2,6-thiadiazine 2,2-dioxide], the activity at 10 µg/mL in data set [1] came out at 100%. Moreover, the IC60 stood at 3000 nM with human platelets (setting [5]), 3000 nM in the data set with human platelets (setting [6]), 30000 nM in the data set with human platelets (setting [7]) and 1000 nM in the data set with human platelets (setting [8]). In data set [2], this compound displayed an activity at 30 µg/mL of 93%. Moreover, the response vs control in vivo at 20 mg/kg in the data set on rats (setting [9]) stood at 123%; in the data set with rats (setting [10]), 85%; in the data set on rats (setting [11]), 142%; with rats (read-out: Na/K), 165%; with rats (setting [12]), 121%.

The compound `CCN1c2nc3c(nc2C(N)=NS1(=O)=O)CCCC3` [4-amino-1-ethyl-6,7,8,9-tetrahydro-1,2,6-thiadiazine[3,4-b]quinoxaline 2,2-dioxide] had an activity at 30 µg/mL in data set [2] of 82%. For the same compound, the “Bronchodilatory activity (area ratio)” value in data set [3] (25 mg/kg i.d.) stood at 0.6; in data set [3] (100 mg/kg i.d.), 0.4.

The term mortality denotes the share of the test organisms that died. A higher mortality goes with a strong lethal effect. Take `CCCN1c2nc(C)c(C)nc2C(N)=NS1(=O)=O` [6,7-dimethyl-1-propyl, 4-amino-6,7-dimethyl-1-propylpyrazino[2,3-c]-1,2,6-thiadiazine 2,2-dioxide]: the response vs control in vivo at 20 mg/kg with rats (setting [9]) amounted to 593%; in the data set on rats (setting [10]) it was 197%; with rats (setting [11]) it was 609%; in the data set on rats (read-out: Na/K), 309%; with rats (setting [12]), 175%. In data set [4], this compound displayed a mortality of 60%.

`CCN1c2nc(-c3ccccc3)c(Br)nc2C(N)=NS1(=O)=O` [6-bromo-1-ethyl-7-phenyl, 4-amino-6-bromo-1-ethyl-7-phenylpyrazino[2,3-c]-1,2,6-thiadiazine 2,2-dioxide] registered an activity at 10 µg/mL in data set [1] of 100%. In data set [2], this compound gave an activity at 30 µg/mL of 63%.

For `CCc1nc2c(nc1C)C(N)=NS(=O)(=O)N2C` [7-ethyl-1,6-dimethyl, 4-amino-7-ethyl-1,6-dimethylpyrazino[2,3-c]-1,2,6-thiadiazine 2,2-dioxide], the activity at 30 µg/mL in data set [2] is 95%. Also, the response vs control in vivo at 20 mg/kg in the data set on rats (setting [9]) is 471%; in the data set with rats (setting [10]) it was 177%; in the data set on rats (setting [11]), 385%; in the data set on rats (read-out: Na/K), 218%; with rats (setting [12]) it was 152%. The mortality in data set [4] was 0%.

For `CC(=O)Oc1ccccc1C(=O)O` [Aspirin, reference compound], the activity at 2.5 µg/mL in data set [1] (read-out: platelet antiaggregation activity (%)) was 100%.

As for `Cn1c(=O)c2[nH]cnc2n(C)c1=O` [Theophylline, reference compound], the activity at 30 µg/mL in data set [2] turned out to be 60%. For the same compound, the “Bronchodilatory activity (area ratio)” value in data set [3] (25 mg/kg i.d.) and in data set [3] (100 mg/kg i.d.) was 1 each time.

The values are drawn from patent US5580869A, “1N substituted pyrazino[2,3-c]-1,2,6-thiadiazine 2,2-dioxides” (Prodesfarma, S.A., priority 1992, dated 1996).
